Experimental data reported in patent US6414142B1, “Process for preparing potassium clavulanate” (SmithKline Beecham Corporation, priority 1996, dated 2002).

Columns and labels:
Format in all cases: physicochemical
[1] = Flowability of potassium clavulanate crystalline forms; conditions: crystalline form comparison, Example 5
[2] = Particle size distribution of potassium clavulanate crystalline forms; conditions: crystalline form comparison, Example 5
[3] = Stability / shelf-life compared with prior art crystalline forms; conditions: compared to rosette, needle and starburst forms; generally lower polymer level

| SMILES | Flowabiiity [1] | Particle Size Distribution [2] | stability and shelf-life [3] |
| --- | --- | --- | --- |
| O=C(O)[C@H]1/C(=C/CO)O[C@@H]2CC(=O)N21 [Needles/rods, potassium clavulanate] | 3.4 | 34.1-67.3 microns |  |
| O=C(O)[C@H]1/C(=C/CO)O[C@@H]2CC(=O)N21 [Rosette-like Starbursts, potassium clavulanate] | 4.8 | 35.1- 97.9 microns | greater stability |
| O=C(O)[C@H]1/C(=C/CO)O[C@@H]2CC(=O)N21 [Rosettes, potassium clavulanate] | 6.1 | 34.8- 66.4 microns |  |
| O=C(O)[C@H]1/C(=C/CO)O[C@@H]2CC(=O)N21 [Starbursts/Broken Starbursts, potassium clavulanate] |  | 33.5-70.5 microns |  |
